Results published in ChEMBL document CHEMBL1201862, “PubChem BioAssay data set” (2004).
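Exposure lasted 48 hours, with cells grown in 96-well plates and compounds tested at five concentrations. GI50 = concentration required for 50% inhibition of growth.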 Calls of active or inactive are those of the source. No stated cut-off is given here; in the data, active = GI50 up to about 1.1 µM and inactive = higher.

Legend:
Test in all cases: growth of human tumour cells (NCI), 48 h
CCRF-CEM = system: CCRF-CEM
UO-31 = system: UO-31
SK-MEL-28 = system: SK-MEL-28
NCI-H460 = system: NCI-H460
KM12 = system: KM12
HT-29 = system: HT-29
MDA-MB-435 = system: MDA-MB-435
NCI-H23 = system: NCI-H23
HOP-62 = system: HOP-62
MDA-N = system: MDA-N
U-251 = system: U-251
SW-620 = system: SW-620
SK-MEL-2 = system: SK-MEL-2
COLO 205 = system: COLO 205
SF-268 = system: SF-268
BT-549 = system: BT-549
TK-10 = system: TK-10
UACC-257 = system: UACC-257
SF-295 = system: SF-295
SR = system: SR

Structure (SMILES)	GI50 (CCRF-CEM)	GI50 (UO-31)	GI50 (SK-MEL-28)	GI50 (NCI-H460)	GI50 (KM12)	GI50 (HT-29)	GI50 (MDA-MB-435)	GI50 (NCI-H23)	GI50 (HOP-62)	GI50 (MDA-N)	GI50 (U-251)	GI50 (SW-620)	GI50 (SK-MEL-2)	GI50 (COLO 205)	GI50 (SF-268)	GI50 (BT-549)	GI50 (TK-10)	GI50 (UACC-257)	GI50 (SF-295)	GI50 (SR)
OC1=C2c3ccccc3NC2Oc2cc(F)ccc21 (stereo not given)	2.22 µM (inactive)	13.9 µM (inactive)	30.1 µM (inactive)	18.5 µM (inactive)	15.4 µM (inactive)	19.8 µM (inactive)	17.1 µM (inactive)	12.9 µM (inactive)	17.7 µM (inactive)	15.8 µM (inactive)	15.7 µM (inactive)	19.6 µM (inactive)	19.7 µM (inactive)	14.5 µM (inactive)	18.2 µM (inactive)	16 µM (inactive)	25.1 µM (inactive)	19 µM (inactive)	14.7 µM (inactive)	–
O=C(c1ccccc1F)c1c(NCc2ccccc2)c(=O)c1=O	> 100 µM (inactive)	> 100 µM (inactive)	> 100 µM (inactive)	> 100 µM (inactive)	> 100 µM (inactive)	> 100 µM (inactive)	> 100 µM (inactive)	> 100 µM (inactive)	> 100 µM (inactive)	> 100 µM (inactive)	> 100 µM (inactive)	> 100 µM (inactive)	> 100 µM (inactive)	> 100 µM (inactive)	> 100 µM (inactive)	> 100 µM (inactive)	> 100 µM (inactive)	> 100 µM (inactive)	> 100 µM (inactive)	–
O=[N+]([O-])C(C(Cl)=C(Cl)Cl)=C(N1CCCCC1)N1CCCCC1	41.9 µM (inactive)	22.1 µM (inactive)	> 100 µM (inactive)	> 100 µM (inactive)	> 100 µM (inactive)	> 100 µM (inactive)	–	> 100 µM (inactive)	> 100 µM (inactive)	68.2 µM (inactive)	> 100 µM (inactive)	> 100 µM (inactive)	–	> 100 µM (inactive)	> 100 µM (inactive)	> 100 µM (inactive)	> 100 µM (inactive)	63.4 µM (inactive)	> 100 µM (inactive)	33.8 µM (inactive)
N#Cc1c(SCc2ccccc2)nc(-c2ccccc2)[nH]c1=S	34.3 µM (inactive)	17.8 µM (inactive)	22.3 µM (inactive)	23.2 µM (inactive)	17.4 µM (inactive)	28.4 µM (inactive)	24 µM (inactive)	18.2 µM (inactive)	19.8 µM (inactive)	22.6 µM (inactive)	21.4 µM (inactive)	25.6 µM (inactive)	16.7 µM (inactive)	17.1 µM (inactive)	22 µM (inactive)	20.6 µM (inactive)	32.7 µM (inactive)	35.2 µM (inactive)	22.4 µM (inactive)	–
CCCCCCCCCC[C@@H](O)[C@@H]1CC[C@@H]([C@@H]2CC[C@@H]([C@@H](O)CCCCCCCCCC[C@H](O)CC3=CC(C)OC3=O)O2)O1 (stereo not given in full)	1.5 µM (inactive)	1.25 µM (inactive)	3.36 µM (inactive)	0.895 µM (active)	2.16 µM (inactive)	2.51 µM (inactive)	1.09 µM (active)	–	2.99 µM (inactive)	–	6.03 µM (inactive)	3.78 µM (inactive)	6.71 µM (inactive)	3.94 µM (inactive)	3.87 µM (inactive)	4.23 µM (inactive)	3.48 µM (inactive)	0.356 µM (active)	1.71 µM (inactive)	2.05 µM (inactive)
CN[C@@H](C)[C@H](OP(=O)(O)OC1[C@@H](O)[C@H](O)C(O)[C@H](O)[C@@H]1O)c1ccccc1 (stereo not given in full)	> 100 µM (inactive)	> 100 µM (inactive)	> 100 µM (inactive)	> 100 µM (inactive)	> 100 µM (inactive)	> 100 µM (inactive)	> 100 µM (inactive)	> 100 µM (inactive)	> 100 µM (inactive)	> 100 µM (inactive)	> 100 µM (inactive)	> 100 µM (inactive)	> 100 µM (inactive)	> 100 µM (inactive)	> 100 µM (inactive)	> 100 µM (inactive)	> 100 µM (inactive)	> 100 µM (inactive)	> 100 µM (inactive)	–
Nc1nc(N)c(C2=CCN(Cc3ccccc3)CC2)c(=O)[nH]1	> 100 µM (inactive)	> 100 µM (inactive)	> 100 µM (inactive)	> 100 µM (inactive)	> 100 µM (inactive)	> 100 µM (inactive)	> 100 µM (inactive)	> 100 µM (inactive)	> 100 µM (inactive)	> 100 µM (inactive)	> 100 µM (inactive)	> 100 µM (inactive)	> 100 µM (inactive)	> 100 µM (inactive)	> 100 µM (inactive)	> 100 µM (inactive)	–	> 100 µM (inactive)	> 100 µM (inactive)	–
